Here are results for five molecules from ChEMBL document CHEMBL1124687, “Analogues of atriopeptin(103-125)amide having high binding selectivity” (J Med Chem, 1989).

Positions of bridges follow the written chain, without caps; N, C: chain ends. Non-standard residues stand in square brackets, D forms with d. Residues, ends and D or L forms follow the SMILES beside them. ξ: configuration not given here. ξA = CC(N)C(=O)O

For one experiment, the species on record is Oryctolagus cuniculus. As to the kind of experiment: Binding affinity for vasorelaxant receptor by competitive displacement of [125I]-AP(103-126) from rabbit lung membranes. The class given is tissue-based. The conditions noted are these: Membrane. For orientation: In a radioligand displacement assay an active substance lowers the binding of a labelled ligand.

Experiment [1] addresses Atrial natriuretic peptide receptor (Homo sapiens) (UniProt P20594+P16066+P17342). As to the kind of experiment: Selectivity factor, ratio of NVR and VR relative binding potency. The conditions noted are these: Oryctolagus cuniculus. The class given is protein assay.
For experiment [2], the target named is T1, Atrial natriuretic peptide receptor 3 (Homo sapiens) (UniProt P17342).
T1 sequence (whole entry): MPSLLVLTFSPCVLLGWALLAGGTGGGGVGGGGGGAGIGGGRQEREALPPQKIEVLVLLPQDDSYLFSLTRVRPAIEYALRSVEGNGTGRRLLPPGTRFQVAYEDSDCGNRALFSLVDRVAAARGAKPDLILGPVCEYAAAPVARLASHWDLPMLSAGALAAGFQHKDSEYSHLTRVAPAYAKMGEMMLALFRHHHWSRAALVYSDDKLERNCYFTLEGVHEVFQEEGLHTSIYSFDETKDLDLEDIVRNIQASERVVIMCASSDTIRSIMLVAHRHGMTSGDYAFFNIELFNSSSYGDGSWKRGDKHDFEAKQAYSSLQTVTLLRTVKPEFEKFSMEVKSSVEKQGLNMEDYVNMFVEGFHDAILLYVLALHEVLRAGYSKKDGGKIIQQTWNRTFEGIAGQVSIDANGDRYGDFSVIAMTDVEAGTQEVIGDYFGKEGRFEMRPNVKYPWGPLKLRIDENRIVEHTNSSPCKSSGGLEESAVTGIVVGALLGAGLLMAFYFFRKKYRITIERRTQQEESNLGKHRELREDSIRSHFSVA
As to the kind of experiment: Binding affinity for non-vasorelaxant receptor by competitive displacement of [125I]-AP(103-126) from rabbit lung membranes. Format: tissue-based. The conditions noted are these: Oryctolagus cuniculus, Membrane, target entry is the homologue from another species.

`CC[C@H](C)[C@@H]1NC(=O)[C@H](CCCN=C(N)N)NC(=O)[C@H](CC(=O)O)NC(=O)[C@H]([C@@H](C)CC)NC(=O)[C@H](CCCN=C(N)N)NC(=O)CNC(=O)CNC(=O)[C@H](Cc2ccccc2)NC(=O)C(C)NC(=O)[C@@H](NC(=O)[C@@H](N)CO)CSSC[C@@H](C(=O)N[C@@H](CO)C(=O)N[C@@H](Cc2ccccc2)C(=O)N[C@@H](CCCN=C(N)N)C(N)=O)NC(=O)C(C)NC(=O)CNC(=O)[C@H](CC(C)C)NC(=O)CNC(=O)[C@H](CO)NC(=O)[C@H](CCC(N)=O)NC(=O)[C@H](C)NC(=O)CNC1=O` (stereo not given in full) (H-SC[ξA]FGGRIDRIGAQSGLG[ξA]CSFR-NH2; disulfide 2-20): the Relative potency was found to be 0.0028 in the experiment listed under Oryctolagus cuniculus and 1.3 in experiment [2]. The Ratio in experiment [1] is 464.
Taken in the same sequence, the figures for `CC[C@H](C)[C@@H]1NC(=O)[C@H](CCCN=C(N)N)NC(=O)[C@H](CC(=O)O)NC(=O)[C@H]([C@@H](C)CC)NC(=O)[C@H](CCCN=C(N)N)NC(=O)[C@@H](NC(=O)CNC(=O)[C@H](Cc2ccccc2)NC(=O)[C@H](C)NC(=O)[C@H](CO)NC(=O)[C@@H](N)CO)CSSC[C@@H](C(=O)NCC(=O)N[C@@H](CC(C)C)C(=O)NCC(=O)N[C@@H](C)C(=O)N[C@@H](CC(N)=O)C(=O)N[C@@H](CO)C(=O)N[C@@H](Cc2ccccc2)C(=O)N[C@@H](CCCN=C(N)N)C(N)=O)NC(=O)[C@H](CCC(N)=O)NC(=O)[C@H](C)NC(=O)CNC1=O` (H-SSAFGCRIDRIGAQCGLGANSFR-NH2; disulfide 6-15) were 0.0013, 0.63 and 485.
Take `CC[C@H](C)[C@@H]1NC(=O)[C@H](CCCN=C(N)N)NC(=O)[C@H](CC(=O)O)NC(=O)[C@H]([C@@H](C)CC)NC(=O)[C@H](CCCN=C(N)N)NC(=O)[C@@H](NC(=O)CNC(=O)[C@H](Cc2ccccc2)NC(=O)[C@H](CSC)NC(=O)[C@H](CO)NC(=O)[C@@H](N)CO)CSSC[C@@H](C(=O)NCC(=O)N[C@@H](CC(C)C)C(=O)NCC(=O)N[C@@H](CSC)C(=O)N[C@@H](CC(N)=O)C(=O)N[C@@H](CO)C(=O)N[C@@H](Cc2ccccc2)C(=O)N[C@@H](CCCN=C(N)N)C(N)=O)NC(=O)[C@H](CCC(N)=O)NC(=O)[C@H](C)NC(=O)CNC1=O` (H-SSC(Me)FGCRIDRIGAQCGLGC(Me)NSFR-NH2; disulfide 6-15): the Relative potency in the experiment listed under Oryctolagus cuniculus is 0.0016; in experiment [2], 0.59. In addition, in experiment [1], the Ratio was 369.
Take `CC[C@H](C)[C@@H]1NC(=O)[C@H](CCCN=C(N)N)NC(=O)[C@H](CC(=O)O)NC(=O)[C@H]([C@@H](C)CC)NC(=O)[C@H](CCCN=C(N)N)NC(=O)CNC(=O)CNC(=O)[C@H](Cc2ccccc2)NC(=O)[C@@H](NC(=O)[C@H](CO)NC(=O)[C@@H](N)CO)CSSC[C@@H](C(=O)N[C@@H](CSC)C(=O)N[C@@H](CC(N)=O)C(=O)N[C@@H](CO)C(=O)N[C@@H](Cc2ccccc2)C(=O)N[C@@H](CCCN=C(N)N)C(N)=O)NC(=O)[C@H](CC(C)C)NC(=O)CNC(=O)[C@H](CO)NC(=O)[C@H](CCC(N)=O)NC(=O)[C@H](C)NC(=O)CNC1=O` (H-SSCFGGRIDRIGAQSGLCC(Me)NSFR-NH2; disulfide 3-18): the Relative potency in the experiment listed under Oryctolagus cuniculus was determined as 0.041; in experiment [2], 1.3. Besides, the Ratio in experiment [1] came out at 32.
Taken in the same sequence, the figures for `CC[C@H](C)[C@@H]1NC(=O)[C@H](CCCN=C(N)N)NC(=O)[C@H](CC(=O)O)NC(=O)[C@H]([C@@H](C)CC)NC(=O)[C@H](CCCN=C(N)N)NC(=O)CNC(=O)CNC(=O)[C@H](Cc2ccccc2)NC(=O)[C@@H](NC(=O)[C@H](CO)NC(=O)[C@@H](N)CO)CSSC[C@@H](C(=O)N[C@@H](CO)C(=O)N[C@@H](CC(N)=O)C(=O)N[C@@H](CO)C(=O)N[C@@H](Cc2ccccc2)C(=O)N[C@@H](CCCN=C(N)N)C(N)=O)NC(=O)[C@H](CC(C)C)NC(=O)CNC(=O)[C@H](CO)NC(=O)[C@H](CCC(N)=O)NC(=O)[C@H](C)NC(=O)CNC1=O` (H-SSCFGGRIDRIGAQSGLCSNSFR-NH2; disulfide 3-18) were 0.056, 1.3 and 23.
